Source: patent US11747352B2 (Concordia University, Inc., priority 2017, dated 2023)
Read-outs that look alike come from different tables or passages of the source. Marks after values point to notes of the source that are not given here.

Assays:
CYP3A5 [1] = target: T1, CYP3A5 (Homo sapiens, UniProt P20815); details: cited from earlier work
CYP3A = details: cited from earlier work
[2] = cited from earlier work
[3] = cited from earlier work; for F %: Table of Tyrosine Kinase Inhibitor Substrates, CYP3A4
CYP3A5 [4] = target: T1, CYP3A5; assay: Tacrolimus metabolism by rhCYP3A5 (Kamdem et al. 2005); type: in vitro ADME; details: rhCYP3A5 vs rhCYP3A4
plasma protein = details: cited from earlier work; for Protein binding %: Table of Tyrosine Kinase Inhibitor Substrates
[5] = cited from earlier work; for T½: Table of Tyrosine Kinase Inhibitor Substrates
[6] = Eplerenone metabolism via pooled human liver microsomes (HLM150); type: in vitro ADME; details: human, pooled human liver microsomes (HLM150, 150 donors), HLM 150, Corning/BD
[7] = test system: human liver microsomes (HLM150); assay: as above; type: in vitro ADME; details: for Vmax: HLM 150, Corning/BD
[8] = test system: human liver microsomes (HLM, Xenotech); details: cited from earlier work
[9] = substrate: COC(=O)[C@@H]1CC2=CC(=O)CC[C@]2(C)[C@@]23O[C@@H]2C[C@@]2(C)[C@@H](CC[C@@]24CCC(=O)O4)[C@H]13; assay: cells, lysate or membranes named; type: in vitro ADME, human

For `Cc1nnc2n1-c1ccc(Cl)cc1C(c1ccccc1)=NC2` [Alprazolam], the “CYP3A5 (% Metabolism)” value (CYP3A5 [1]) is given as less than 10% and the “All CYP3A (% Metabolism)” value (CYP3A) is given as 62%.

In the case of `COC(=O)[C@@H]1CC2=CC(=O)CC[C@]2(C)[C@@]23O[C@@H]2C[C@@]2(C)[C@@H](CC[C@@]24CC(O)C(=O)O4)[C@H]13` (some centres unmarked) [21OH-EP, 21-hydroxyeplerenone], the “Compound Type” value ([2]; SimCYP model parameter) is listed as “Neutral” and the Blood/plasma ratio [2] is listed as 1.

In the case of `C=CC[C@@H]1/C=C(\C)C[C@H](C)C[C@H](OC)[C@H]2O[C@@](O)(C(=O)C(=O)N3CCCC[C@H]3C(=O)O[C@H](/C(C)=C/[C@@H]3CC[C@@H](O)[C@H](OC)C3)[C@H](C)[C@@H](O)CC1=O)[C@H](C)C[C@@H]2OC` [Tacrolimus], the “ORAL BIOAVAILABILITY” value ([3]; Table CYP3A4) is given as 17-31% ^ and the “higher catalytic efficiency via CYP3A5” value (CYP3A5 [4]) is given as 60%.

For `COC(=O)[C@H]1[C@H]2[C@@H]3CC[C@@]4(CCC(=O)O4)[C@@]3(C)C[C@H]3O[C@@]23[C@@]2(C)CCC(=O)C=C2[C@@H]1O` [6OH-EP, 6β-hydroxyeplerenone], the “Compound Type” value ([2]; SimCYP model parameter) is listed as “Neutral” and the Blood/plasma ratio [2] is listed as 1.

In the case of `C#Cc1cccc(Nc2ncnc3cc(OCCOC)c(OCCOC)cc23)c1` [Erlotinib], the Protein binding % (plasma protein) is given as 95%.

For `C=C[C@H]1C[N@@]2CC[C@H]1C[C@@H]2[C@@H](O)c1ccnc2ccc(OC)cc12` [Quinidine], the “ORAL BIOAVAILABILITY” value ([3]; Table CYP3A4) is listed as 70-80% ^ and the “All CYP3A (% Metabolism)” value (CYP3A) is listed as 93%.

For `Cc1ncc2n1-c1ccc(Cl)cc1C(c1ccccc1F)=NC2` [Midazolam], the “CYP3A5 (% Metabolism)” value (CYP3A5 [1]) is listed as 43%, the “All CYP3A (% Metabolism)” value (CYP3A) is listed as 92% and the “AUC fold higher than average” value (CYP3A4/5) is listed as 2.3 fold. For the same molecule, the “AUC fold lower than the mean” value (CYP3A4/5) was 4.1 fold.

In the case of `COc1cc2ncnc(Nc3ccc(F)c(Cl)c3)c2cc1OCCCN1CCOCC1` [Gefitinib], the F % [3] is listed as 59%, the Protein binding % (plasma protein) is listed as 90% and the T½ [5] is listed as 6 to 49 h.

In the case of `COc1ccccc1OCCNCC(O)COc1cccc2[nH]c3ccccc3c12` (centres unmarked) [Carvedilol], the “ORAL BIOAVAILABILITY” value ([3]; Table CYP2D6) is given as 25-35% ^ and the “HALF LIFE” value ([5]; Table CYP2D6) is given as 6 to 10 h.

In the case of `CN1C(C(=O)Nc2ccccn2)=C(O)c2sc(Cl)cc2S1(=O)=O` [Lomoxicam], the “BIOAVAILABILITY IM” value ([3]; in vivo, im) is given as “IM: 87%” and the “HALF LIFE” value ([5]; in vivo) is given as 4 h.

For `CC(=O)[C@H]1CC[C@H]2[C@@H]3CCC4=CC(=O)CC[C@]4(C)[C@H]3CC[C@]12C` [Progesterone], the “PLASMA PROTEIN BINDING” value (plasma protein; Table CYP2C19) is listed as 96-99% ^.

For `CCN(CC)CCNC(=O)c1c(C)[nH]c(/C=C2\C(=O)Nc3ccc(F)cc32)c1C` [Sunitinib], the F % [3] is given as 50%, the Protein binding % (plasma protein) is given as 95% and the T½ [5] is given as 40 to 60 h.

In the case of `OC(CNCC(O)C1CCc2cc(F)ccc2O1)C1CCc2cc(F)ccc2O1` (centres unmarked) [Nebivolol], the “ORAL BIOAVAILABILITY” value ([3]; Table CYP2D6) is listed as 12-96% ^ and the “HALF LIFE” value ([5]; Table CYP2D6) is listed as 12 to 19 h.

For `CC(C)(O)c1ccccc1CC[C@@H](SCC1(CC(=O)O)CC1)c1cccc(/C=C/c2ccc3ccc(Cl)cc3n2)c1` [Montelukast], the “ORAL BIOAVAILABILITY” value ([3]; Table CYP2C9) is listed as 64-73% ^, the “PLASMA PROTEIN BINDING” value (plasma protein; Table CYP2C9) is listed as greater than 99% and the “HALF LIFE” value ([5]; Table CYP2C9) is listed as 2.7 to 5.5 h.

For `CNC1(c2ccccc2Cl)CCCCC1=O` (centres unmarked) [Ketamine], the “BIOAV[…]” value ([3]; in vivo, im) is listed as “IM: 90-93%, PO: 16%” and the “HALF LIFE” value ([5]; in vivo) is listed as 2 to 3 h.

For `Cc1ccc(Nc2nccc(N(C)c3ccc4c(C)n(C)nc4c3)n2)cc1S(N)(=O)=O` [pazopanib], the F % [3] is given as 14-21%, the Protein binding % (plasma protein) is given as greater than 99.5% and the T½ [5] is given as 30.9 to 31.9 h.

In the case of `CC(C)(C)NC(=O)[C@@H]1C[C@@H]2CCCC[C@@H]2CN1C[C@@H](O)[C@H](Cc1ccccc1)NC(=O)[C@H](CC(N)=O)NC(=O)c1ccc2ccccc2n1` [Saquinavir], the “CYP3A5 (% Metabolism)” value (CYP3A5 [1]) is listed as 11% and the “All CYP3A (% Metabolism)” value (CYP3A) is listed as 99%.

For `Cc1cccc(C)c1OCC(C)N` (centres unmarked) [Mexiletine], the “ORAL BIOAVAILABILITY” value ([3]; Table CYP2D6) is given as 80-90% ^, the “HALF LIFE” value ([5]; Table CYP1A2) is given as 10 to 12 h and the “HALF LIFE” value ([5]; Table CYP2D6) is given as 6 to 17 h.

In the case of `CC(C)NCC(O)COc1cccc2ccccc12` (centres unmarked) [Propranolol], the “ORAL BIOAVAILABILITY” value ([3]; Table CYP2D6) is given as 30-70% ^ and the “HALF LIFE” value ([5]; Table CYP2D6) is given as 3 to 6 h.

In the case of `CCCCCc1cc(O)c2c(c1)OC(C)(C)[C@@H]1CCC(C)=C[C@@H]21` [THC], the “ORAL BIOAVAILABILITY” value ([3]; Table CYP2C9) is listed as 10-35% ^ and the “HALF LIFE” value ([5]; Table CYP2C9) is listed as 1.6 to 59 h.

In the case of `CNCCC(Oc1ccc(C(F)(F)F)cc1)c1ccccc1` (centres unmarked) [Fluoxetine], the “ORAL BIOAVAILABILITY” value ([3]; Table CYP2C9) is given as 60-80% ^, the “ORAL BIOAVAILABILITY” value ([3]; Table CYP2D6) is given as 60-80% ^ and the “HALF LIFE” value ([5]; Table CYP2C9) is given as 96 to 140 h. The “HALF LIFE” value ([5]; Table CYP2D6) was 96 to 140 h.

In the case of `COC(=O)[C@@H]1CC2=CC(=O)CC[C@]2(C)[C@@]23O[C@@H]2C[C@@]2(C)[C@@H](CC[C@@]24CCC(=O)O4)[C@H]13` [Eplerenone], the Km at 10 min ([6]; 6β-OH metabolite formation) is reported as 473 µM, the Km at 10 min ([6]; 21-OH metabolite formation) is reported as 197 µM and the Vmax ([7]; 6β-OH metabolite formation) is reported as 1493 pmol/min/mg. For the same molecule, the Vmax ([7]; 21-OH metabolite formation) was 216 pmol/min/mg, the “ISEF for recombinant CYP3A4/5” value ([7]; HLM 150 vs rhCYP3A4 and rhCYP3A5 clearances, Eq. 1) was 1.0 and the “Permeability model Caco-2” value ([2]; Caco-2) was “Caco-2 (24* 10^−6 cm/s)”. The “Compound Type” value ([2]; SimCYP model parameter) was “Neutral”, the “ka” value ([2]; SimCYP model parameter) was 1.647 h⁻¹ and the Km ([8]; 6β-OH metabolite formation) was 217 µM. The Vmax ([8]; 6β-OH metabolite formation) was 973 pmol/min/mg, the Km ([8]; 21-OH metabolite formation) was 211 µM and the Vmax ([8]; 21-OH metabolite formation) was 143 pmol/min/mg.

In the case of `CNC(=O)c1cc(Oc2ccc(NC(=O)Nc3ccc(Cl)c(C(F)(F)F)c3)cc2)ccn1` [sorafenib], the F % [3] is given as 38-49%, the Protein binding % (plasma protein) is given as 99.5% and the T½ [5] is given as 25 to 48 h.

For `Cc1nnc2n1-c1ccc(Cl)cc1C(c1ccccc1Cl)=NC2` [Triazolam], the “CYP3A5 (% Metabolism)” value (CYP3A5 [1]) is listed as 25% and the “All CYP3A (% Metabolism)” value (CYP3A) is listed as 92%.

B1: rhCYP3A5 (Homo sapiens) (protein)
chain: MDLIPNLAVETWLLLAVSLVLLYLYGTRTHGLFKRLGIPGPTPLPLLGNVLSYRQGLWKFDTECYKKYGKMWGTYEGQLPVLAITDPDVIRTVLVKECYSVFTNRRSLGPVGFMKSAISLAEDEEWKRIRSLLSPTFTSGKLKEMFPIIAQYGDVLVRNLRREAEKGKPVTLKDIFGAYSMDVITGTSFGVNIDSLNNPQDPFVESTKKFLKFGFLDPLFLSIILFPFLTPVFEALNVSLFPKDTINFLSKSVNRMKKSRLNDKQKHRLDFLQLMIDSQNSKETESHKALSDLELAAQSIIFIFAGYETTSSVLSFTLYELATHPDVQQKLQKEIDAVLPNKAPPTYDAVVQMEYLDMVVNETLRLFPVAIRLERTCKKDVEINGVFIPKGSMVVIPTYALHHDPKYWTEPEEFRPERFSKKKDSIDPYIYTPFGTGPRNCIGMRFALMNMKLALIRVLQNFSFKPCKETQIPLKLDTQGLLQPEKPIVLKVDSRDGTLSGE
notes: purchased BD Biosciences/Corning
With B1 the Km ([9]; other: 6β-OH metabolite formation, rhCYP3A5 (printed rhCYPA5)) was 142 mcM and the Km ([9]; other: 21-OH metabolite formation, rhCYP3A5) was 72 mcM.
